According to ChEMBL document CHEMBL5113478, “7-Azaindole, 2,7-diazaindole, and 1H-pyrazole as core structures for novel anticancer agents with potential chemosensitizing properties” (Eur J Med Chem, 2022):
Calls of active or inactive are those of the source. No cut-off for these calls is given here.

Columns and labels:
PANC-1 [1] = test: Antiproliferative activity against human PANC-1 cells assessed as […] cell proliferation at 10 uM incubated for 48 hrs in presence of 15 uM of CDDP by WST-1 assay relative to control; type: functional
SAOS-2 [2] = test: Antiproliferative activity against human SAOS-2 cells assessed as […] cell proliferation at 10 uM incubated for 48 hrs by WST-1 assay relative to control; type: functional
Jurkat [3] = test: Antiproliferative activity against human Jurkat cells assessed as […] cell proliferation at 10 uM incubated for 48 hrs by WST-1 assay relative to control; type: functional
MOLT-4 [4] = test: Antiproliferative activity against human MOLT-4 cells assessed as […] cell proliferation at 10 uM incubated for 48 hrs by WST-1 assay relative to control; type: functional
HeLa [5] = test: Antiproliferative activity against human HeLa cells assessed as […] cell proliferation at 10 uM incubated for 48 hrs by WST-1 assay relative to control; type: functional
A549 [6] = test: Antiproliferative activity against human A549 cells assessed as […] cell proliferation at 10 uM incubated for 48 hrs by WST-1 assay relative to control; type: functional
MCF7 [7] = test: Antiproliferative activity against human MCF7 cells assessed as […] cell proliferation at 10 uM incubated for 48 hrs in presence of 10 uM of CDDP by WST-1 assay relative to control; type: functional
[8] = Chemo-sensitizing activity against human 1321N1 cells at 15 uM incubated for 48 hrs in presence of TMZ by MTT assay relative to control; type: functional
PANC-1 [9] = test: Antiproliferative activity against human PANC-1 cells assessed as […] cell proliferation at 10 uM incubated for 48 hrs by WST-1 assay relative to control; type: functional
1321N1 [10] = test: Cytotoxicity against human 1321N1 cells assessed as reduction in cell viability at 15 uM incubated for 48 hrs by MTT assay; type: functional, cell-based
HT-29 [11] = test: Antiproliferative activity against human HT-29 cells assessed as […] cell proliferation at 10 uM incubated for 48 hrs by WST-1 assay relative to control; type: functional
GBM = test: Cytotoxicity against patient-derived human GBM cells assessed as reduction in cell viability at 15 uM incubated for 48 hrs by MTT assay; type: functional
A2780 [12] = test: Antiproliferative activity against human A2780 cells assessed as […] cell proliferation at 10 uM incubated for 48 hrs by WST-1 assay relative to control; type: functional
MCF7 [13] = test: Antiproliferative activity against human MCF7 cells assessed as […] cell proliferation at 10 uM incubated for 48 hrs by WST-1 assay relative to control; type: functional
A549 [14] = test: Antiproliferative activity against human A549 cells assessed as […] cell proliferation at 10 uM incubated for 48 hrs in presence of 15 uM of CDDP by WST-1 assay relative to control; type: functional
MOLT-4 [15] = test: Antiproliferative activity against human MOLT-4 cells assessed as […] cell proliferation at 10 uM incubated for 48 hrs in presence of 2 uM of CDDP by WST-1 assay relative to control; type: functional
HeLa [16] = test: Antiproliferative activity against human HeLa cells assessed as […] cell proliferation at 10 uM incubated for 48 hrs in presence of 15 uM of CDDP by WST-1 assay relative to control; type: functional
A2780 [17] = test: Antiproliferative activity against human A2780 cells assessed as […] cell proliferation at 10 uM incubated for 48 hrs in presence of 2 uM of CDDP by WST-1 assay relative to control; type: functional
Jurkat [18] = test: Antiproliferative activity against human Jurkat cells assessed as […] cell proliferation at 10 uM incubated for 48 hrs in presence of 2 uM of CDDP by WST-1 assay relative to control; type: functional
SAOS-2 [19] = test: Antiproliferative activity against human SAOS-2 cells assessed as […] cell proliferation at 10 uM incubated for 48 hrs in presence of 15 uM of CDDP by WST-1 assay relative to control; type: functional
HT-29 [20] = test: Antiproliferative activity against human HT-29 cells assessed as […] cell proliferation at 10 uM incubated for 48 hrs in presence of 15 uM of CDDP by WST-1 assay relative to control; type: functional
[21] = target: Protein kinase C alpha type (Homo sapiens) (UniProt P17252); test: Inhibition of human PKCalpha assessed as residual activity at 10 uM relative to control
[22] = target: Angiopoietin-1 receptor (Homo sapiens) (UniProt Q02763); test: Inhibition of human Tie2 assessed as residual activity at 10 uM relative to control
[23] = target: Vascular endothelial growth factor receptor 2 (Homo sapiens) (UniProt P35968); test: Inhibition of human KDR assessed as residual activity at 10 uM relative to control
Chain of Vascular endothelial growth factor receptor 2 (Homo sapiens) (P35968 whole entry): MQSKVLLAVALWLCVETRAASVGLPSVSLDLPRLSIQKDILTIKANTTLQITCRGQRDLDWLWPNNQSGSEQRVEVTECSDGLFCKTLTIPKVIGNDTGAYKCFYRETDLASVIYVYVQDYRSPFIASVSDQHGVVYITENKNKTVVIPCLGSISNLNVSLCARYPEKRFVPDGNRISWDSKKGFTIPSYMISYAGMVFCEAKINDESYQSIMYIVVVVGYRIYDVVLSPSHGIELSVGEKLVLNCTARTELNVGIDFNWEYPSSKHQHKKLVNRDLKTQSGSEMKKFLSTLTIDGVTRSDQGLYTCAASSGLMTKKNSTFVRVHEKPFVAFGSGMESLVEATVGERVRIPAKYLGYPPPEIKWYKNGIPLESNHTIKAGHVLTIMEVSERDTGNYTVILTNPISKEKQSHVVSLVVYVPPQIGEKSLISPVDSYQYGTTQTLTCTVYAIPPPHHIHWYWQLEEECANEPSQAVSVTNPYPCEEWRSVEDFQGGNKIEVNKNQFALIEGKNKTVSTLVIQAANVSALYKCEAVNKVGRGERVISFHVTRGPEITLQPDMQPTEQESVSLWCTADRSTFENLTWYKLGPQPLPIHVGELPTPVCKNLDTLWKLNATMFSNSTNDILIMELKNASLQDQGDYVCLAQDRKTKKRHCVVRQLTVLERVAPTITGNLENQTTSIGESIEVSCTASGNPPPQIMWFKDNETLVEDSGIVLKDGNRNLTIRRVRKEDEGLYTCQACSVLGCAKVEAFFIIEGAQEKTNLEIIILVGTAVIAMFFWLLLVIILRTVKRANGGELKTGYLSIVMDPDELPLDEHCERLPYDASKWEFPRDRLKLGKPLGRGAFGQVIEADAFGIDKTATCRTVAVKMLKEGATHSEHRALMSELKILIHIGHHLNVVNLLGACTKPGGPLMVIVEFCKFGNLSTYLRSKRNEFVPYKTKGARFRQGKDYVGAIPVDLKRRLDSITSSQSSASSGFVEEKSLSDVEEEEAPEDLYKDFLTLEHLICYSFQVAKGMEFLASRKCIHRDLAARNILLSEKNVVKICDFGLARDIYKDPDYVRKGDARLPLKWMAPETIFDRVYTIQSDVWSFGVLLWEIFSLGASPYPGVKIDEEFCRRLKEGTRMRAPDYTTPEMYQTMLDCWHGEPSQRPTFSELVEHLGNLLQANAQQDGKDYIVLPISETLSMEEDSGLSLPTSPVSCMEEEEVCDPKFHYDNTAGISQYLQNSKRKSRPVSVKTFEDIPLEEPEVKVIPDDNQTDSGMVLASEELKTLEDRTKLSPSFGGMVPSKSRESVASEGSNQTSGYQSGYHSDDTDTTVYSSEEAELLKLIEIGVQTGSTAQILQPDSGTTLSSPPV

1321N1 [24] = test: Chemo-sensitizing activity against human 1321N1 cells at 15 uM incubated for 48 hrs in presence of TMZ by MTT assay; type: functional, cell-based
[25] = test system: Mast/stem cell growth factor receptor Kit (Homo sapiens), P10721 [V560G]; test: Inhibition of human cKit V560G mutant assessed as residual activity at 10 uM relative to control
[26] = target: T1, Cytoplasmic tyrosine-protein kinase BMX (Homo sapiens) (UniProt P51813); test: Inhibition of human Bmx assessed as residual activity at 10 uM relative to control
T1 sequence (whole entry): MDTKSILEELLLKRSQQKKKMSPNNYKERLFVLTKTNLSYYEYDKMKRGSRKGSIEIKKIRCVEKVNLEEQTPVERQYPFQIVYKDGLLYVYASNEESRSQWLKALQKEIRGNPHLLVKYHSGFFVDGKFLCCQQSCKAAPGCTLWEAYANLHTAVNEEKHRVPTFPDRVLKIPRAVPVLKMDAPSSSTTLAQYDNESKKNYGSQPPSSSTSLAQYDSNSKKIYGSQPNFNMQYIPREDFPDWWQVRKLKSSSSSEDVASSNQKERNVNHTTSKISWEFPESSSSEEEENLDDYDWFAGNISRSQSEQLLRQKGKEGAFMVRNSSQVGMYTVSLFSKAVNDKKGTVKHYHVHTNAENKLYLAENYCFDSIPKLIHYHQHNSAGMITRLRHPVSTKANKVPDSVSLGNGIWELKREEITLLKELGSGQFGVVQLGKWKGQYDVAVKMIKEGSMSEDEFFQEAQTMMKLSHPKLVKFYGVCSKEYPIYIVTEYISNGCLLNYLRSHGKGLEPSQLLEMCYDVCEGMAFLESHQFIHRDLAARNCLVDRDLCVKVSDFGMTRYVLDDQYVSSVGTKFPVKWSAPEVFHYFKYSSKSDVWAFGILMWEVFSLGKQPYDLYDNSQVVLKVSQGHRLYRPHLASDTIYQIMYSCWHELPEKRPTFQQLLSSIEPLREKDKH

ATR/ATRIP (Homo sapiens) = ATR/ATRIP (Homo sapiens) (UniProt Q13535+Q8WXE1); test: Inhibition of human ATR/ATRIP assessed as residual activity at 10 uM relative to control; type: protein-complex assay
[27] = target: T2, Aurora kinase A (Homo sapiens) (UniProt O14965); test: Inhibition of human Aurora-A assessed as residual activity at 10 uM relative to control
T2 sequence (whole entry): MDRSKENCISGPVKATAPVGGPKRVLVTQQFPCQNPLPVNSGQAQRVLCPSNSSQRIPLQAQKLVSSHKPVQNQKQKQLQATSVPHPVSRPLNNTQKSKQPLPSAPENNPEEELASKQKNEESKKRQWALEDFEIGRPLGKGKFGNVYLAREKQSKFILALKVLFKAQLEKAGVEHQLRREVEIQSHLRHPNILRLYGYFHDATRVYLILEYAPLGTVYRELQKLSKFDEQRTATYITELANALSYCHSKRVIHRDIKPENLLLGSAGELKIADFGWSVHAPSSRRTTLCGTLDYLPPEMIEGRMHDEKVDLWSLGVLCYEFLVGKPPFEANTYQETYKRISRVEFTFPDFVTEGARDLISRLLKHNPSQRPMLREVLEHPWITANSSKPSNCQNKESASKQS

[28] = target: Vascular endothelial growth factor receptor 3 (Homo sapiens) (UniProt P35916); test: Inhibition of human FLT4 assessed as residual activity at 10 uM relative to control
[29] = target: Vascular endothelial growth factor receptor 1 (Homo sapiens) (UniProt P17948); test: Inhibition of human FLT1 assessed as residual activity at 10 uM relative to control
Chain of Vascular endothelial growth factor receptor 1 (Homo sapiens) (P17948 whole entry): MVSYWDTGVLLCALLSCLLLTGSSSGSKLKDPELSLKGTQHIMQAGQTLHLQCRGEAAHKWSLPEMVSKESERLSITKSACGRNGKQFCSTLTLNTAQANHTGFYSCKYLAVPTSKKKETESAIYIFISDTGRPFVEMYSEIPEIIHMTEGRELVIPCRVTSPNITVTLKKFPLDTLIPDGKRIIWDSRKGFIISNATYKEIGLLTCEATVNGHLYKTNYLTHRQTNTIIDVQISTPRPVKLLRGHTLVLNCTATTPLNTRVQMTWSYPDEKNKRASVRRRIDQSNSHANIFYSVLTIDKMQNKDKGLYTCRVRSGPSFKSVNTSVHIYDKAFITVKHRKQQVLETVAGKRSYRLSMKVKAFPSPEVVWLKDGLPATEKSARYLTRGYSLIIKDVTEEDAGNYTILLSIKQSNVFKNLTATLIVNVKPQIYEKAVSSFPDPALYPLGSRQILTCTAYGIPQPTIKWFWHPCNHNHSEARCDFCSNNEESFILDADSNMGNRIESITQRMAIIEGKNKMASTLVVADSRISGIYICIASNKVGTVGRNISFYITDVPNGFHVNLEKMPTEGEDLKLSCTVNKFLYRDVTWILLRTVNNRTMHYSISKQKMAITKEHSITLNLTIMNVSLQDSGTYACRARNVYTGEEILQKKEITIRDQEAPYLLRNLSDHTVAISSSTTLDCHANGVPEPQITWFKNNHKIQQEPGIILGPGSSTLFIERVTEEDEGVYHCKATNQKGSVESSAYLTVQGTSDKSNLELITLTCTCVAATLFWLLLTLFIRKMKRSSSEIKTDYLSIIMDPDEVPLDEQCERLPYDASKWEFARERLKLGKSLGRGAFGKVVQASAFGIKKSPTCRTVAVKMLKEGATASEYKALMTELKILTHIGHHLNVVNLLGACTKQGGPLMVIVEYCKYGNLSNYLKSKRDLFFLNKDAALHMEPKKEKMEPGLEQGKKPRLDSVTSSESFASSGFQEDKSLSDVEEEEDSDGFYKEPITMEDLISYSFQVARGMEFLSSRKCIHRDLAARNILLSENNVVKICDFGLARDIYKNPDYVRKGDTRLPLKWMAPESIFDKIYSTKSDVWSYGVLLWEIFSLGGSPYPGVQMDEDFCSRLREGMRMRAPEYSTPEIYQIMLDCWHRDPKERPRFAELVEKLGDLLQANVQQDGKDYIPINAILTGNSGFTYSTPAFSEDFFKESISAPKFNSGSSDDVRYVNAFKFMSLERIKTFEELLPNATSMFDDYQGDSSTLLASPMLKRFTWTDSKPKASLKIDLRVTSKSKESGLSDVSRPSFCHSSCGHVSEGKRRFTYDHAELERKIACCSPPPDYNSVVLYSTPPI

[30] = target: Proto-oncogene tyrosine-protein kinase receptor Ret (Homo sapiens) (UniProt P07949); test: Inhibition of human Ret assessed as residual activity at 10 uM relative to control
[31] = target: Fibroblast growth factor receptor 3 (Homo sapiens) (UniProt P22607); test: Inhibition of human FGFR3 assessed as residual activity at 10 uM relative to control
[32] = target: Fibroblast growth factor receptor 2 (Homo sapiens) (UniProt P21802); test: Inhibition of human FGFR2 assessed as residual activity at 10 uM relative to control
Chain of Fibroblast growth factor receptor 2 (Homo sapiens) (P21802 22-821 limits assumed): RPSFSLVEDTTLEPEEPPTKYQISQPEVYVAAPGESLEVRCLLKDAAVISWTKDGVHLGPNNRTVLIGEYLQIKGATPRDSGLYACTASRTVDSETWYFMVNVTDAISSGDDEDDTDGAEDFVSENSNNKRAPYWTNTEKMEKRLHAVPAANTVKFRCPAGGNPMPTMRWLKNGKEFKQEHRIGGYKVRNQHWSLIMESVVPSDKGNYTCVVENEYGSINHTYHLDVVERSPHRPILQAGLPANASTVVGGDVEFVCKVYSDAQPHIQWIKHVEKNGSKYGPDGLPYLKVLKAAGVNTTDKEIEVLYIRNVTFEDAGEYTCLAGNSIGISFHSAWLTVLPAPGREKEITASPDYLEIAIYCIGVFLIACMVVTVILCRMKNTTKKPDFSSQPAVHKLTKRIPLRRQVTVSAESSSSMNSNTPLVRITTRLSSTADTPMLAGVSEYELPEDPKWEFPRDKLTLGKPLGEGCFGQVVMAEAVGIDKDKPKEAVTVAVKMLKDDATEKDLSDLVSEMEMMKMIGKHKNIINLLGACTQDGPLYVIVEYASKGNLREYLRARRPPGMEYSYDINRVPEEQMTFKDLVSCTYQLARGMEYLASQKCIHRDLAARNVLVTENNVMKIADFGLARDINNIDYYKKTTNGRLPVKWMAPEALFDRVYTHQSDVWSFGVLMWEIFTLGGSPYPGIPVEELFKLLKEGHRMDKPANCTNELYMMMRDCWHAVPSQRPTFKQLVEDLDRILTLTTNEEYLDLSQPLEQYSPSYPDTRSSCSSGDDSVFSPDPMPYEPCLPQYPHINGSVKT

[33] = target: High affinity nerve growth factor receptor (Homo sapiens) (UniProt P04629); test: Inhibition of human TrkA assessed as residual activity at 10 uM relative to control
Chain of High affinity nerve growth factor receptor (Homo sapiens) (P04629 33-796 limits assumed): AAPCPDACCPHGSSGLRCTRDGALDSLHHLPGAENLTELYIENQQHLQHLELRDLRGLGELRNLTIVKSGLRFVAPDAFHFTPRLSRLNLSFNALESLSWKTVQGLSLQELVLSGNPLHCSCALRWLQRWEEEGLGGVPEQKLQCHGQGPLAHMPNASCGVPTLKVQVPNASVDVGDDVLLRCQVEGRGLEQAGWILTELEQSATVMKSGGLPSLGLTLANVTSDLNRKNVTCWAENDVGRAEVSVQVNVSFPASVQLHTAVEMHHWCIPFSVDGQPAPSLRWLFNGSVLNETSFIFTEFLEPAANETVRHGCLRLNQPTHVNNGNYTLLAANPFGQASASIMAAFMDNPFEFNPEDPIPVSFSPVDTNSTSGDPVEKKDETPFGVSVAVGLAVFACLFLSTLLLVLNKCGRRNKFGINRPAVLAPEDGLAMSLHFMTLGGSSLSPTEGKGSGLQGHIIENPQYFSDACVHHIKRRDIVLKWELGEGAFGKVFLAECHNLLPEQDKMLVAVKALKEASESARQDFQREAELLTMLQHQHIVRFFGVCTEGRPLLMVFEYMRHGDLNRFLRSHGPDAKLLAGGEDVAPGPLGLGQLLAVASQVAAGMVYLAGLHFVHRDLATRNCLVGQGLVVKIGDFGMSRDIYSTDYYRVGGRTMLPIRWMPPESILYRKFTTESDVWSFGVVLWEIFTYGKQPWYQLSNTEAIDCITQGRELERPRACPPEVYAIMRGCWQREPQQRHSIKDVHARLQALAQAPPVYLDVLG

[34] = target: Serine/threonine-protein kinase ATR (Homo sapiens, UniProt Q13535); test: Binding affinity to ATR (unknown origin) assessed as inhibition constant

| SMILES | Activity (PANC-1 [1]) | Activity (SAOS-2 [2]) | Activity (Jurkat [3]) | Activity (MOLT-4 [4]) | Activity (HeLa [5]) | Activity (A549 [6]) | Activity (MCF7 [7]) | Activity (PANC-1 [9]) | Activity (1321N1 [10]) | Cell viability relative to control (HT-29 [11]) | Activity (GBM) | Activity (A2780 [12]) | Activity (MCF7 [13]) | Activity (A549 [14]) | Activity (MOLT-4 [15]) | Activity (HeLa [16]) | Activity (A2780 [17]) | Activity (Jurkat [18]) | Activity (SAOS-2 [19]) | Activity (HT-29 [20]) | further results |
| --- | --- | --- | --- | --- | --- | --- | --- | --- | --- | --- | --- | --- | --- | --- | --- | --- | --- | --- | --- | --- | --- |
| CC(C)S(=O)(=O)c1ccc(-c2cnc3[nH]cc(CN4CCC(c5ccccc5)CC4)c3c2)cc1 | 46% | 77% | 77% | 77% | 77% | 77% | 46% | 77% | Active | 77% | Active | 77% | 77% | 46% | 46% | 46% | 46% | 46% | 46% | 46% | Activity [8]: 100% |
| CC(C)S(=O)(=O)c1ccc(-c2cnc3[nH]nc(C(=O)N4CCC(c5ccccc5)CC4)c3c2)cc1 | 49% | 79% | 79% | 79% | 79% | 79% | 49% | 79% | Active | 79% | 50% | 79% | 79% | 49% | 49% | 49% | 49% | 49% | 49% | 49% | Activity [21]: 59%; Activity [22]: 70%; Activity [23]: 73%; Activity (1321N1 [24]): Active; Activity [25]: 89%; Activity [26]: 98%; Activity (ATR/ATRIP (Homo sapiens)): 59%; Activity [27]: 80%; Activity [28]: 39%; Activity [29]: 61%; Activity [30]: 77%; Activity [31]: 90%; Activity [32]: 105%; Activity [33]: 108% |
| Nc1nn2cc(F)cnc2c1C(=O)Nc1cncc(F)c1N1CCC(C(=O)N2CCN(C3COC3)CC2)CC1 [M4344] |  |  |  |  |  |  |  |  |  |  |  |  |  |  |  |  |  |  |  |  | Ki [34]: < 0.2 nM |
| CCN1CCN(C2CCN(Cc3c[nH]c4ncc(-c5ccc(S(=O)(=O)C(C)C)cc5)cc34)CC2)CC1 | 46% | 87% | 87% | 87% | 87% | 87% | 46% | 87% | Active | 87% | Active | 87% | 87% | 46% | 46% | 46% | 46% | 46% | 46% | 46% | Activity [21]: 88%; Activity [22]: 84%; Activity [23]: 91%; Activity (1321N1 [24]): Active; Activity [25]: 83%; Activity [26]: 97%; Activity (ATR/ATRIP (Homo sapiens)): 96%; Activity [27]: 86%; Activity [28]: 80%; Activity [29]: 81%; Activity [30]: 129%; Activity [31]: 92%; Activity [32]: 108%; Activity [33]: 82% |
| CC(C)S(=O)(=O)c1ccc(-c2cnc3[nH]cc(C(=O)N4CCC(c5ccccc5)CC4)c3c2)cc1 | 28% | 30% | 30% | 30% | 30% | 30% | 28% | 30% | Active | 30% | Active | 30% | 30% | 28% | 28% | 28% | 28% | 28% | 28% | 28% | Activity [21]: 90%; Activity [22]: 57%; Activity [23]: 52%; Activity [25]: 30%; Activity [26]: 56%; Activity (ATR/ATRIP (Homo sapiens)): 91%; Activity [27]: 45%; Activity [28]: 10%; Activity [29]: 49%; Activity [30]: 16%; Activity [31]: 60%; Activity [32]: 57%; Activity [33]: 42% |
